Values joined by “and” are separate entries in the source; they are usually repeats but may differ in a detail not shown here. Identical values can stand only once. Toxic doses and inconclusive results are not listed. Cut-off read from the data, not from the text of the source: active = T/C of 150% or more; inactive = T/C below 125%.
Test system: L1210 leukemia ip in BDF1 mice, survival T/C
Experiment: NCI In Vivo Anticancer Drug Screen. Data for tumor model L1210 Leukemia (intraperitoneal) in B6D2F1 (BDF1) mice
Conditions: endpoint: mean survival time, higher = longer survival
Method in brief: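 Transplantable tumor model; survival measured in treated vs vehicle control mice. Value = treated/control.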

[1] = dose: 100.0 mg/kg/injection, schedule: Q01DX001 (ip), vehicle: carboxymethylcellulose (CMC)
[2] = dose: 200.0 mg/kg/injection, schedule: Q01DX001 (ip), vehicle: carboxymethylcellulose (CMC)
[3] = dose: 400.0 mg/kg/injection, schedule: Q01DX001 (ip), vehicle: carboxymethylcellulose (CMC)
[4] = dose: 100.0 mg/kg/injection, schedule: Q04DX003 (ip), vehicle: saline with Tween-80
[5] = dose: 200.0 mg/kg/injection, schedule: Q04DX003 (ip), vehicle: saline with Tween-80
[6] = dose: 400.0 mg/kg/injection, schedule: Q04DX003 (ip), vehicle: saline with Tween-80
[7] = dose: 100.0 mg/kg/injection, schedule: Q04DX003 (ip), vehicle: Klucel (hydroxypropylcellulose) (HPC)
[8] = dose: 200.0 mg/kg/injection, schedule: Q04DX003 (ip), vehicle: Klucel (hydroxypropylcellulose) (HPC)
[9] = dose: 400.0 mg/kg/injection, schedule: Q04DX003 (ip), vehicle: Klucel (hydroxypropylcellulose) (HPC)
[10] = dose: 100.0 mg/kg/injection, schedule: Q04DX003 (ip), vehicle: saline
[11] = dose: 200.0 mg/kg/injection, schedule: Q04DX003 (ip), vehicle: saline
[12] = dose: 100.0 mg/kg/injection, schedule: Q04DX002 (ip), vehicle: Klucel (hydroxypropylcellulose) (HPC)
[13] = dose: 50.0 mg/kg/injection, schedule: Q01DX009 (ip), vehicle: saline
[14] = dose: 100.0 mg/kg/injection, schedule: Q01DX009 (ip), vehicle: saline
[15] = dose: 200.0 mg/kg/injection, schedule: Q01DX009 (ip), vehicle: saline
[16] = dose: 400.0 mg/kg/injection, schedule: Q01DX009 (ip), vehicle: saline
[17] = dose: 100.0 mg/kg/injection, schedule: Q01DX009 (ip), vehicle: saline with Tween-80
[18] = dose: 200.0 mg/kg/injection, schedule: Q01DX009 (ip), vehicle: saline with Tween-80
[19] = dose: 25.0 mg/kg/injection, schedule: Q01DX009 (ip), vehicle: Klucel (hydroxypropylcellulose) (HPC)
[20] = dose: 100.0 mg/kg/injection, schedule: Q01DX009 (ip), vehicle: Klucel (hydroxypropylcellulose) (HPC)
[21] = dose: 100.0 mg/kg/injection, schedule: Q04DX002 (ip), vehicle: saline with Tween-80
[22] = dose: 200.0 mg/kg/injection, schedule: Q04DX002 (ip), vehicle: saline with Tween-80
[23] = dose: 400.0 mg/kg/injection, schedule: Q04DX002 (ip), vehicle: saline with Tween-80
[24] = dose: 100.0 mg/kg/injection, schedule: Q04DX002 (ip), vehicle: saline
[25] = dose: 25.0 mg/kg/injection, schedule: Q04DX002 (ip), vehicle: saline

Measured: T/C

CS(=O)(=O)OCCCCO
inactive: dose: 50.0 mg/kg/injection, schedule: Q01DX001 (ip), vehicle: carboxymethylcellulose (CMC) 88 % of control | [1] 93 % of control | [2] 93 % of control | [3] 90 % of control

Clc1cccc2c(Cl)nccc12
inactive: [4] 100 % of control | [5] 94 % of control | [6] 96 % of control

O=C(NCCCl)Nc1ccc2c(c1)Cc1ccccc1-2
inactive: [7] 108 % of control | [8] 93 % of control | [9] 101 % of control

ClCc1ccc2ccc3cccc4ccc1c2c34
inactive: dose: 5.0 mg/kg/injection, schedule: Q01DX009 (ip), vehicle: carboxymethylcellulose (CMC) 109 % of control | dose: 10.0 mg/kg/injection, schedule: Q01DX009 (ip), vehicle: carboxymethylcellulose (CMC) 110 % of control | dose: 12.5 mg/kg/injection, schedule: Q01DX009 (ip), vehicle: carboxymethylcellulose (CMC) 109 % of control | dose: 20.0 mg/kg/injection, schedule: Q01DX009 (ip), vehicle: carboxymethylcellulose (CMC) 121 % of control | dose: 25.0 mg/kg/injection, schedule: Q01DX009 (ip), vehicle: carboxymethylcellulose (CMC) 97 % of control

C[N+](C)(C)CCCOC(=O)C1C2CC3OC(=O)C1C3C2 (stereo not drawn)
inactive: [10] 101 % of control | [11] 96 % of control

COc1cc(N)ccc1NC(=O)c1ccccc1
inactive: dose: 12.5 mg/kg/injection, schedule: Q01DX001 (ip), vehicle: carboxymethylcellulose (CMC) 117 % of control | dose: 25.0 mg/kg/injection, schedule: Q01DX001 (ip), vehicle: carboxymethylcellulose (CMC) 106 % of control

O=c1c2c3ccccc3c(=O)c=2c2ccccc12
inactive: dose: 100.0 mg/kg/injection, schedule: Q01DX001 (ip), vehicle: Klucel (hydroxypropylcellulose) (HPC) 98 % of control | dose: 200.0 mg/kg/injection, schedule: Q01DX001 (ip), vehicle: Klucel (hydroxypropylcellulose) (HPC) 103 % of control

Cc1nc(N)[nH]c(=O)c1CCCNc1nc(Cl)nc(Cl)n1
inactive: [12] 91 % of control | dose: 200.0 mg/kg/injection, schedule: Q04DX002 (ip), vehicle: Klucel (hydroxypropylcellulose) (HPC) 91 % of control | dose: 400.0 mg/kg/injection, schedule: Q04DX002 (ip), vehicle: Klucel (hydroxypropylcellulose) (HPC) 88 % of control

COc1cc2ccc3c(c2cc1OC)CNCC3
inactive: [13] 104 % of control | [14] 104 % of control | [10] 116 % of control | [15] 88 % of control | [11] 102 % of control

CCSC(=O)n1nc(Cl)c2cc([N+](=O)[O-])ccc21
inactive: [1] 93 % of control | [2] 102 % of control | [3] 93 % of control

CC1=C(C)CC2C(=O)OC(=O)C2C1 (stereo not drawn)
inactive: [14] 98 % of control | [7] 106 % of control | [10] 98 % of control | [15] 102 % of control | [8] 95 % of control | [11] 105 % of control | [16] 98 % of control | [9] 98 % of control | dose: 400.0 mg/kg/injection, schedule: Q04DX003 (ip), vehicle: saline 105 % of control

CNC(=O)Oc1cccc(NC(=O)OC2CCCCC2)c1
inactive: [17] 89 % of control | [18] 97 % of control | dose: 400.0 mg/kg/injection, schedule: Q01DX009 (ip), vehicle: saline with Tween-80 89 % of control

O=Cc1ccc(/C=C2\NC(=O)NC2=O)cc1
inactive: dose: 25.0 mg/kg/injection, schedule: Q01DX009 (ip), vehicle: water 90 % of control | dose: 50.0 mg/kg/injection, schedule: Q01DX009 (ip), vehicle: water 92 % of control | dose: 100.0 mg/kg/injection, schedule: Q01DX009 (ip), vehicle: water 96 % of control | dose: 200.0 mg/kg/injection, schedule: Q01DX009 (ip), vehicle: water 93 % of control

COc1ccccc1OCC(O)COC(N)=O (stereo not drawn)
inactive: [19] 100 % of control | dose: 50.0 mg/kg/injection, schedule: Q01DX009 (ip), vehicle: Klucel (hydroxypropylcellulose) (HPC) 103 % of control | [20] 106 % of control | dose: 200.0 mg/kg/injection, schedule: Q01DX009 (ip), vehicle: Klucel (hydroxypropylcellulose) (HPC) 103 % of control | dose: 400.0 mg/kg/injection, schedule: Q01DX009 (ip), vehicle: Klucel (hydroxypropylcellulose) (HPC) 106 % of control

Cc1cc(O)ccc1CCC#N
inactive: [14] 96 % of control and 91 % of control | [21] 95 % of control and 101 % of control | [15] 104 % of control and 115 % of control | [22] 95 % of control and 96 % of control | [16] 96 % of control and 89 % of control | [23] 95 % of control and 101 % of control

C=C1C(=O)OC2C1C(O)CC(C)(O)C1CC=C(C)C21 (stereo not drawn)
inactive: [24] 102 % of control | dose: 200.0 mg/kg/injection, schedule: Q04DX002 (ip), vehicle: saline 102 % of control | dose: 400.0 mg/kg/injection, schedule: Q04DX002 (ip), vehicle: saline 94 % of control

Cc1c(Cl)cc(Cl)c(N)c1Cl
inactive: [4] 100 % of control | [5] 98 % of control | [6] 96 % of control

O=c1[nH]c2ccccc2n1C1CCN(CCCC(c2ccc(F)cc2)c2ccc(F)cc2)CC1
inactive: dose: 12.5 mg/kg/injection, schedule: Q01DX009 (ip), vehicle: Klucel (hydroxypropylcellulose) (HPC) 100 % of control | [19] 120 % of control | dose: 25.0 mg/kg/injection, schedule: Q04DX003 (ip), vehicle: Klucel (hydroxypropylcellulose) (HPC) 88 % of control | dose: 50.0 mg/kg/injection, schedule: Q04DX003 (ip), vehicle: Klucel (hydroxypropylcellulose) (HPC) 104 % of control | [20] 88 % of control | [7] 104 % of control | [8] 109 % of control | [9] 95 % of control

C=CCc1ccc(OC(=O)Nc2ccc(S(=O)(=O)NC3CCCCC3)cc2)c(OC)c1
inactive: dose: 100.0 mg/kg/injection, schedule: Q01DX001 (ip), vehicle: saline 91 % of control | dose: 200.0 mg/kg/injection, schedule: Q01DX001 (ip), vehicle: saline 94 % of control | dose: 400.0 mg/kg/injection, schedule: Q01DX001 (ip), vehicle: saline 96 % of control

CC(=O)OC(C)CC[P+](c1ccccc1)(c1ccccc1)c1ccccc1 (stereo not drawn)
inactive: dose: 75.0 mg/kg/injection, schedule: Q01DX001 (ip), vehicle: other 104 % of control | dose: 150.0 mg/kg/injection, schedule: Q01DX001 (ip), vehicle: other 106 % of control

[Cu+2].[NH-]C(CCC(N)=O)C(=O)O.[NH-]C(CCC(N)=O)C(=O)O (stereo not drawn)
inactive: dose: 6.25 mg/kg/injection, schedule: Q04DX003 (ip), vehicle: saline 96 % of control | dose: 12.5 mg/kg/injection, schedule: Q04DX003 (ip), vehicle: saline 91 % of control | dose: 25.0 mg/kg/injection, schedule: Q04DX003 (ip), vehicle: saline 100 % of control

Cc1cncn1CC(=O)c1ccccc1
inactive: dose: 25.0 mg/kg/injection, schedule: Q01DX009 (ip), vehicle: saline 104 % of control and 105 % of control | [25] 101 % of control and 105 % of control | [13] 103 % of control and 104 % of control | dose: 50.0 mg/kg/injection, schedule: Q04DX002 (ip), vehicle: saline 101 % of control and 108 % of control | [12] 93 % of control | [24] 103 % of control

NC(CCl)=NCc1cccnc1
inactive: dose: 12.5 mg/kg/injection, schedule: Q04DX002 (ip), vehicle: saline 97 % of control | [25] 108 % of control

CCC[As](=O)(O)CC
inactive: [14] 103 % of control | [15] 105 % of control

COC(=O)NC1CC/C=C\CCC1I (stereo not drawn)
inactive: dose: 200.0 mg/kg/injection, schedule: Q04DX002 (ip), vehicle: DMSO 102 % of control

C=CC/C=C/C1CCCCC1
inactive: dose: 50.0 mg/kg/injection, schedule: Q01DX009 (ip), vehicle: saline with Tween-80 92 % of control | [17] 100 % of control | [18] 89 % of control

O=C1OC(c2cccc(Cl)c2)=N/C1=C\c1ccc(O)cc1
inactive: [21] 118 % of control | [22] 100 % of control | [23] 104 % of control

From PubChem BioAssay AID248 (DTP/NCI, 2004)
